Data set [1] relates to premature LH-surge. In words: Open-label uncontrolled clinical trial of premature LH-surge prevention in women undergoing COH/IVF. It is filed as in vivo. Particulars: daily oral 40 mg. As for the experimental part:
An open-label, uncontrolled, single centre clinical trial is performed to investigate the efficacy, safety and tolerability of premature LH-surge prevention in 10 women undergoing IVF treatment for infertility by Controlled Ovarian Hyperstimulation (COH), using a daily oral dosage of 40 mg estetrol (E4) from day 6 of FSH treatment up to and including the day of hCG administration to resume meiosis and induce lutëinisation. Oocytes are retrieved 30-38 hours after hCG administration, fertilised in vitro and two days later no more than two embryos are transferred to the uterus of the patient. Standard luteal support is prescribed.
Ultrasonographic monitoring of follicle growth and endometrial thickness are performed during this treatment procedure including extensive and repeated hormonal analysis and measurement of E4 levels extending into the luteal phase after embryo transfer.

For data set [2], the system named is premature LH-surge. In words: Randomised controlled dose-finding clinical trial of premature LH-surge prevention in COH/IVF, E4 versus ganirelix. It is filed as in vivo, women. Here is the method:
An open-label, randomised, controlled, dose-finding, multi-centre clinical trial is performed to investigate and compare the efficacy, safety and tolerability of premature LH-surge prevention in women undergoing COH/IVF using either E4 in an oral dosage of 1, 5, 10, 20, 40 or 80 mg per day or a daily subcutaneous injection of 0.25 mg ganirelix. Group size is 30 women, so in total 210 patients participate in the trial. E4/ganirelix treatment is started on day 6 of FSH treatment up to and including the day of hCG administration. Further procedures are similar to example 1.

The target in a further data set is T1, ERα receptor (Homo sapiens, UniProt P03372).
T1 sequence (P03372 1-595): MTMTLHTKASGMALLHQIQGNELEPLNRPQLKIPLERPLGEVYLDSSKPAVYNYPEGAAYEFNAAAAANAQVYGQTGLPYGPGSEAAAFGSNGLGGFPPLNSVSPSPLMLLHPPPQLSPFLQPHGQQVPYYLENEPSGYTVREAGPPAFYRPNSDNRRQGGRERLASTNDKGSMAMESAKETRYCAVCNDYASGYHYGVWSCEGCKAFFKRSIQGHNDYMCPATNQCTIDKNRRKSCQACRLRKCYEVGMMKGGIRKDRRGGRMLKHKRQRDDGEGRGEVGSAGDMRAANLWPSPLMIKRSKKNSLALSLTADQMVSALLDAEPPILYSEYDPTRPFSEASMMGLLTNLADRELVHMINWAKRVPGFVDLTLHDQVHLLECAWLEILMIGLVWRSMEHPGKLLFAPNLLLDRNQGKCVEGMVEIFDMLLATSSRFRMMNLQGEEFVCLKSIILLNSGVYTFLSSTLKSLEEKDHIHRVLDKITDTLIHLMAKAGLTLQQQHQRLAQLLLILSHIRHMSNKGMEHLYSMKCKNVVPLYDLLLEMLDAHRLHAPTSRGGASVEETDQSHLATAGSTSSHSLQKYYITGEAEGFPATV
Kind of data set: Estrogen receptor affinity. It is filed as binding.

A further data set concerns the target ERβ receptor (Homo sapiens, UniProt Q92731). Kind of data set: Estrogen receptor affinity. It is filed as binding.

Sequence of ERβ receptor (Q92731 whole entry): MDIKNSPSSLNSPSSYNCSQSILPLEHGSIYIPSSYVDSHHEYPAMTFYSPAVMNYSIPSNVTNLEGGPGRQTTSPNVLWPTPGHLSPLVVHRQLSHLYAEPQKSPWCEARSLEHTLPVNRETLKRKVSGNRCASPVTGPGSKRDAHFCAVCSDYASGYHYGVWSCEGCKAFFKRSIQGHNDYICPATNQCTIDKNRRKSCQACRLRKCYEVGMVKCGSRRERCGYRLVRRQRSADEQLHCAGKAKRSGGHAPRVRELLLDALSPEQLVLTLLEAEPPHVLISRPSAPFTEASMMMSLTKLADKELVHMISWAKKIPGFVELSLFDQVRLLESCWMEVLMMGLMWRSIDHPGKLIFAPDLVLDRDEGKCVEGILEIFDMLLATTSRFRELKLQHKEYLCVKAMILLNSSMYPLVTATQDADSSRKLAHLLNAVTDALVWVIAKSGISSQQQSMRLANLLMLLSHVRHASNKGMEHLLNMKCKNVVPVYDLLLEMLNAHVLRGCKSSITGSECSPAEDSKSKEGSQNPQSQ

Take `C[C@]12CC[C@@H]3c4ccc(O)cc4CC[C@H]3[C@@H]1[C@@H](O)[C@@H](O)[C@@H]2O` [estetrol, 1,3,5 (10)-estratrien-3,15α,16α,17β-tetrol]: the tolerability / side-effects entry is “well tolerated without significant side-effects” with premature LH-surge [1]; “well tolerated and without significant side-effects” in the data set with premature LH-surge [2] (oral 1-80 mg per day). Moreover, the “prevention of a premature LH-surge” value with premature LH-surge [1] (from day 6 of FSH treatment up to and including day of hCG, 10 women) is reported as “efficacious in preventing a premature LH-surge”. The vital pregnancies result with premature LH-surge [1] (COH/IVF with embryo transfer) was “Vital pregnancies occur”. For the same compound, the “prevention of premature LH-surges compared with ganirelix” value in the data set on premature LH-surge [2] (higher oral dosages vs daily subcutaneous 0.25 mg ganirelix) is on record as “equally effective to parenteral ganirelix”. In addition, the “prevention of premature LH-surges” value in the data set on premature LH-surge [2] (oral 1, 5, 10, 20, 40 or 80 mg per day) was “dose dependent prevention of premature LH-surges”. Also, in the data set on premature LH-surge [2] (oral E4 vs daily subcutaneous 0.25 mg ganirelix), the “vital pregnancy rates compared with ganirelix” value was “trend to be superior to ganirelix treated patients”. In addition, the “affinity for the ERα receptor” value at ERα receptor is on record as “relatively high affinity”. Besides, the “affinity for the ERβ receptor” value at ERβ receptor was “relatively low affinity”.

(Values after US8236785B2, “Method of treating or preventing infertility in a female mammal and pharmaceutical kit for use in such method” (Pantarhei Bioscience B.V., priority 2007, dated 2012).)
